From patent US20230181599A1, “PROGESTOGEN FORMULATIONS AND USES THEREOF” (Shenzhen Evergreen Therapeutics Co., Ltd, priority 2020, published 2023)

What was measured:
[1] = tested on: smoke exposure-induced COPD rats; test: Lung function (FEV0.2/FVC, small animal spirometer) in smoke exposure-induced COPD rats; assay type: in vivo, Wistar rats; conditions: CS-exposed rats, nebulized drug; compared with the model group
Procedure: (§1) Seventy-two Wistar rats were randomly divided into the blank control group, model group, 17-HPC (0.5 mg/ml, 0.25 mg/ml and 0.1 mg/ml) groups, BUD (0.5 mg/ml and 0.1 mg/ml) groups, and combination treatment (0.5 mg/ml BUD+0.25 mg/ml 17-HPC and 0.1 mg/ml BUD+0.25 mg/ml 17-HPC) groups. Drug concentration is the nebulized solution concentration. Lung function (forced vital capacity) of rats was measured using the small animal spirometer, and differential count in the BALF was determined under the microscope. Serum and BALF cytokine (IL-6, IL-17, TNF-α and IL-β) levels were measured by ELISA. Inflammatory cell infiltration area and MLI in rat lung tissues were determined by HE staining. Lung function of rats was measured using the small animal spirometer after 24 weeks of CS exposure.

[2] = target: ABCB1 efflux transporters (Homo sapiens, UniProt P08183); conditions: Bloise, E., et al. 2016; cited from earlier work
Chain of ABCB1 efflux transporters (P08183 whole entry): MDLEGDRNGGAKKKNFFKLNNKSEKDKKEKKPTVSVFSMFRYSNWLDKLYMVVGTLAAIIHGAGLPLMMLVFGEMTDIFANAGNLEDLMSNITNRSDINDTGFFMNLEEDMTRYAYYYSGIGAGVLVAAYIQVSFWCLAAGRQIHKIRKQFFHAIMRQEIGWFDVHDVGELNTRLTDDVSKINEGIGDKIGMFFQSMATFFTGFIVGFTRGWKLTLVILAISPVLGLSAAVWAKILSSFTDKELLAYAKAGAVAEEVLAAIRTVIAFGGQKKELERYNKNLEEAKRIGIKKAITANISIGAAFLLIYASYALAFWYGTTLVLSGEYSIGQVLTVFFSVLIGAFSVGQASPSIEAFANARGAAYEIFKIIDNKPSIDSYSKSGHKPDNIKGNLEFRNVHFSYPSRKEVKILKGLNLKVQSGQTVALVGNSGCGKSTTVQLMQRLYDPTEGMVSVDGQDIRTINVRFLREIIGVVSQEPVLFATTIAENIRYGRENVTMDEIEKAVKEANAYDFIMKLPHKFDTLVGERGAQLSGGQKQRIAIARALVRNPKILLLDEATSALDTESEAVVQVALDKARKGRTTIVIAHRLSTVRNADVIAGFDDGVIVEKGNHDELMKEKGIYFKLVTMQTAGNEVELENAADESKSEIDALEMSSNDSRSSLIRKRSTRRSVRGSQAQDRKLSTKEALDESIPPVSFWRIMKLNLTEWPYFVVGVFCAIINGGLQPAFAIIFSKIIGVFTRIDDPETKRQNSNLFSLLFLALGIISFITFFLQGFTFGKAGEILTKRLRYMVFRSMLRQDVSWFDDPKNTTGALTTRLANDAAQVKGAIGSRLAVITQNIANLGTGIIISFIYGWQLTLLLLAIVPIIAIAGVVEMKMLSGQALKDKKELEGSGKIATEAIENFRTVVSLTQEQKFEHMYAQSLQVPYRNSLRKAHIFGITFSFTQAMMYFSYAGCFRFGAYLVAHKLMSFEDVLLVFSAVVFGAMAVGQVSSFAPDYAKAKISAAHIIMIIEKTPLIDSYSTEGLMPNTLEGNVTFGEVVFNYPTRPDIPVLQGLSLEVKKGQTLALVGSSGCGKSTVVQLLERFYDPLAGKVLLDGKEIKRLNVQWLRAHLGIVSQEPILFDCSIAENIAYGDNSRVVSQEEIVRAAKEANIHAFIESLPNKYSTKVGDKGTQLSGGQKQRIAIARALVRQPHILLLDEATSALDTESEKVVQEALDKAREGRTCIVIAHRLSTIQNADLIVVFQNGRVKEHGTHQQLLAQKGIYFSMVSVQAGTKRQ

Body weight of COPD rats = assay type: in vivo, Wistar rats; conditions: at 24 weeks; for weight increase: vs model group / BUD alone groups
Excerpt: Inhibition of weight increase was lower in 17-HPC group than in the same dose BUD group.

[3] = tested on: smoke exposure-induced COPD rats; test: Differential count in BALF (neutrophils) of COPD rats; assay type: in vivo, Wistar rats; conditions: CS-exposed rats, nebulized drug
Procedure: (§2) Seventy-two Wistar rats were randomly divided into the blank control group, model group, 17-HPC (0.5 mg/ml, 0.25 mg/ml and 0.1 mg/ml) groups, BUD (0.5 mg/ml and 0.1 mg/ml) groups, and combination treatment (0.5 mg/ml BUD+0.25 mg/ml 17-HPC and 0.1 mg/ml BUD+0.25 mg/ml 17-HPC) groups. Drug concentration is the nebulized solution concentration. Lung function (forced vital capacity) of rats was measured using the small animal spirometer, and differential count in the BALF was determined under the microscope. Serum and BALF cytokine (IL-6, IL-17, TNF-α and IL-β) levels were measured by ELISA. Inflammatory cell infiltration area and MLI in rat lung tissues were determined by HE staining. […] The efficacy of high dose BUD was equivalent to that of high dose BUD+17-HPC.

[4] = PK of oral formulations of PR2005 in female dogs, relative bioavailability vs intramuscular injection (MAKENA); assay type: in vivo
Excerpt: This study determined the pharmacokinetic parameters of the test drug PR2005 (also referred to herein as 17-HPC) in different formulations after oral gavage or capsule administrations in dogs. This study further determined the relative bioavailability of the test drug PR2005 in each formulation, compared to intramuscular injection solution (MAKENA®).
PK parameters were estimated, including maximum plasma drug concentration (Cmax), time to reach Cmax (Tmax), time delay in absorption process (Tlag), area under the plasma concentration-time curve from time 0 to the last quantifiable data point (AUClast), area under the plasma concentration-time curve from time zero to infinity (AUCinf), plasma half-life (t1/2), and apparent plasma clearance (CL/F), apparent volume of distribution (Vz/F). All these parameters were computed using standard non-compartmental methods of analysis. Geometric mean and CV % are reported for most of PK parameters, and median with range is reported for Tmax and Tlag. Plasma PR2005 PK data was analyzed in Pheonix WinNonLin 8.1 (Certara USA, Inc.).
Log-transformed values of AUCinf were analyzed using a linear mixed-effects model. Least squares mean (LSM) for each treatment group and 90% confidence interval (CI) for the mean of the pairwise differences were estimated using this model. After back transformation from the log scale, estimates of geometric LSM and 90% CI for the ratio of means were calculated. Relative bioavailability (Fr %) was calculated as the ratio of dose normalized geometric least square mean (LSM) for test formulation and IM solution: […]
PR2005 250 mg intramuscular injection: 250 mg 17-HPC, 28.6% v/v of castor oil (CAS 8001-79-4), 46% v/v of benzyl benzoate (CAS 120-51-4), and 2% v/v of benzyl alcohol.
PR2005 250 mg oral (powder in capsules): 20% w/w of 17-HPC and 80% w/w mannitol. The particle size of 17-HPC is from about 2 to about 10 μm.
PR2005 250 mg Suspension #1: 30% w/w of 17-HPC and 70% castor oil (CAS 8001-79-4). The particle size of 17-HPC is from about 5 to about 30 μm.
PR2005 250 mg and 750 mg Solution #3: 30% w/w of 17-HPC, 63% w/w of benzyl benzoate (CAS 120-51-4), and 7% w/w of macrogolglycerol ricinoleate (CAS 61791-12-6).
The test items were administered on the first day of each trial. Each animal group was rotated through each trial with at least 4 days between trials and a […] 7-day washout between each test item administration.

Sprague-Dawley rats = test: Seven-day inhalation toxicity study in rats (GLP); assay type: in vivo
Procedure: (§3) A 7-day inhalation toxicity study in rats was conducted under GLP conditions. In this study, aerosolized 17-HPC was administered to Sprague-Dawley rats (10/sex/group) at 8, 24, and 72 mg/kg/day for 7 consecutive days. A control group of rats was dosed with aerosolized vehicle. Animals were observed daily for clinical signs. Body weight and food consumption were recorded at pretest, and then on Days 1, 4, and 7. In order to evaluate reversibility of 17-HPC treatment, a satellite rat group (5/sex/group) was dosed by inhalation at 72 mg/kg/day for 7 days, and then was sacrificed on Day 14. Except for the rats in the satellite group, all animals were sacrificed on Day 8. Hematology and biochemistry examinations were performed at the end of the study. Organ weight, gross pathology, and histopathology evaluations were performed.
(§4) Histopathological examinations on the animal tissues from the 24 and 72 mg/kg/day groups have not been completed prior to submission of this pre-IND package.
(§5) Based on the preliminary results of this study, inhalational administration of 17-HPC at 8 mg/kg/day (48 mg/m^2/day) was determined as the no observed adverse effect level (NOAEL) The proposed clinical study is a single dose inhalation study starting at a dose level of 300 μg, which is approximately 6 μg/kg/day (222 μg/m^2/day) based on a human body weight of 50 kg/person. Therefore, the NOAEL generated in this inhalation study is approximately 216 times greater than the proposed initial clinical dose based on body surface areas.

[5] = Seven-day inhalation toxicity study in rats (GLP); assay type: in vivo, Sprague-Dawley rats; conditions: both sexes, Sprague-Dawley, rat, in vivo, inhaled or intranasal; inhalation, 7 consecutive days, rats; preliminary results; read-out: no observed adverse effect level (NOAEL)
Procedure: as §3, §4, §5

[6] = Saxton D J et al. 2004; cited from earlier work
[7] = tested on: TNF-α, IL-1β, IL-6 and IL-17; test: Serum and BALF cytokine levels by ELISA in COPD rats; assay type: in vivo, Wistar rats; conditions: different doses, aside from the low dose (0.1 mg/ml) 17-HPC group
Procedure: as §1, with “To examine the in vitro and in vivo efficacy of 17-HPC inhalation in chronic obstructive pulmonary disease (COPD) rats, a rat model of COPD was established by exposing Wistar rats to CS for 1 hour every day for a total of 180 days. Seventy-two” for “Seventy-two”, “staining.” for “staining. Lung function of rats was measured using the small animal spirometer after 24 weeks of CS exposure.”

[8] = tested on: smoke exposure-induced COPD rats; test: HE staining of lung tissue: inflammatory cell infiltration area and MLI in COPD rats; assay type: in vivo, Wistar rats
Procedure: as §2

[9] = 250 mg intramuscular injection, geometric mean

| SMILES | FEV0.2/FVC % [1] | ABCB1 efflux transporter substrate [2] | Inhibition of weight increase vs same dose BUD group (Body weight of COPD rats) | weight increase (Body weight of COPD rats) | percentage of neutrophils in rat BALF [3] | Cl/F [4, 9] [L/h] | V [4, 9] [L] | half-life ([4]; female, dog, plasma, im, 250 mg intramuscular injection, geometric mean) [h] | Tmax ([4]; female, dog, plasma, im, 250 mg intramuscular injection, median) [h] | dose proportionality of Cmax and AUC, 250 to 750 mg ([4]; oral) | no observed adverse effect level (NOAEL), body surface area (Sprague-Dawley rats; inhalation, 7 days, rats) [mg/m^2/day] | NOAEL relative to the proposed initial clinical dose (300 μg) based on body surface areas (Sprague-Dawley rats; rat, in vivo) | pathological alterations after a 7-day recovery period (Sprague-Dawley rats; rat, in vivo, 72 mg/kg/day) | NOAEL at 7 days [5] [mg/kg/day] | activity when administered orally [6] | TNF-α, IL-1β, IL-6 and IL-17 levels in the BALF [7] | inflammatory cell infiltration in lung tissue sections (HE staining) ([8]; 17-HPC groups vs model rats) | MLI ([8]; aside from the 0.1 mg/ml 17-HPC group, dose-dependent) | inflammatory cell infiltration in the lung tissues ([8]; high dose 17-HPC) |
| --- | --- | --- | --- | --- | --- | --- | --- | --- | --- | --- | --- | --- | --- | --- | --- | --- | --- | --- | --- |
| CCCCCC(=O)O[C@]1(C(C)=O)CC[C@H]2[C@@H]3CCC4=CC(=O)CC[C@]4(C)[C@H]3CC[C@@]21C [Solution 17-HPC, 17-[(1-Oxohexyl)oxyl]-pregn-4-ene-3,20-dione] | improved FEV0.2/FVC % in a dose-dependent manner | substrate of ABCB1 efflux transporters | lower | no difference in weight increase | reduced the percentage of neutrophils | 35.68 | 2485 | 48.4 | 48 | generally greater than dose proportional | 48 | approximately 216 times | no remarkable pathological alterations | 8 | inactive | downregulate | attenuated | decreased | antagonize inflammatory cell infiltration |
| CCCC1O[C@@H]2C[C@H]3[C@@H]4CCC5=CC(=O)C=C[C@]5(C)[C@H]4[C@@H](O)C[C@]3(C)[C@]2(C(=O)CO)O1 (some centres unmarked) [BUD, budesonide] | – | – | – | inhibited weight increase | – | – | – | – | – | – | – | – | – | – | – | – | – | – | – |
